Columns and labels:
[1] = system: HBV replication in HepG2/2.2.15 cells; assay: Antiviral efficiency of synthetic gRNA/Cas9 RNPs in HepG2/2.2.15 cells (HBsAg/HBeAg ELISA, HBV mRNA and HBV DNA real-time PCR); type: cell-based, Hepatitis B virus (HBV); set-up: reduction in HBsAg expression / reduction of HBV mRNA expression: concentration or dose not given beside the values; settings: for reduction of HBV mRNA expression: HepG2/2.2.15 cells, real-time PCR, vs gRNAc; for reduction in HBsAg expression: HepG2/2.2.15 supernatant, 3 days after nucleofection, ELISA, vs scrambled gRNAc; for antiviral efficacy among the 9 gRNAs tested: HepG2.2.15 cells
Description: The HepG2.2.15 Human Hepatoblastoma cell line (Cat #SCC249, MilliporeSigma, Burlington, MA) is a traditional HBV cellular model that is widely used for studying HBV infection and drug development. HepG2.2.15 cells display constitutive HBV RNA transcription and DNA replication, but a lesser detection of cccDNA by Southern blot and PCR detection. The HepG2/2.2.15 cells were cultured in DMEM (Cat #MT10013CV, Fisher Scientific, Waltham, MA) supplemented with 10% Fetal bovine serum, penicillin, and streptomycin (50 ug/ml each; Fisher Scientific) and maintained at 37° C. and 5% CO2 atmosphere. The Amaxa Cell Line Nucleofector Kit V (Lonza VCA-1003) was used to deliver gRNA/Cas9 into HepG2/2.2.15 cells stably expressing HBV. For each transfection, 160 μM gRNA and 160 μM tracrRNA were first incubated at 37° C. for 30 minutes, followed by adding 80 μM Cas9 protein and incubating at 37° C. for 15 minutes. Approximately 40 μM of the gRNA/Cas9 complex was transfected into HepG2/2.2.15 cells (5×10^5) following the manufacturer's instructions. After 72 hours, the culture supernatants were harvested to measure HBV antigens by ELISA, and the cell pellets were used to determine HBV DNA or mRNA levels by real-time-PCR.
The levels of HBsAg and HBeAg in the supernatants of cell cultures were determined by ELISA (Cat #KA0286 and NBP2-600029, Novus Biologicals, Littleton, CO) according to the manufacturer's protocol. The optical density of antigen levels was measured at 450 nm using a microplate spectrophotometer. The samples were run in triplicate, and the experiments were repeated at least three times.
Total RNA was extracted from the cell pellets by the RNeasy Mini kit (Cat #74104, QIAGEN, Germantown, MD), and 1 μg RNA was converted to cDNA using the Applied Biosystems High-Capacity cDNA Reverse Transcription Kit (Cat #43-688-14, ThermoFisher, Waltham, MA). Quantitative real-time PCR (real-time-qPCR) was performed using iTaq Universal SYBR Green Supermix (Cat #1725124, Bio-Rad, Hercules, CA). The PCR primers were: HBV mRNA forward, 5′-[…]-3′ (SEQ ID NO: 52), reverse, 5′-[…]-3′ (SEQ ID NO: 53); HBV pgRNA forward 5′-[…]-3′ (SEQ ID NO: 54), reverse 5′-[…]-3′ (SEQ ID NO: 55); and GAPDH forward 5′-[…]-3′ (SEQ ID NO: 56), reverse 5′-[…]-3′ (SEQ ID NO: 57). The gene expression levels were determined by the […] method and values were normalized to GAPDH expression as an internal control.
Total and protein-free HBV DNAs were extracted from whole cell lysate using the Hirt DNA method according to a previously published protocol. For HBV cccDNA analysis, the protein-free DNA was treated with 10 units of T5 exonuclease (NEB) at 37° C. for 30 min, followed by 95° C. for 5 min, and diluted 4-fold with nuclease-free water. Next, the cccDNA was cleaned with a DNA clean and concentrator kit (ZYMO Research, Irvine, CA) and used for PCR. HBV total DNA and cccDNA were analyzed by real-time PCR using a TaqMan PCR assay. The primers and probe used to amplify HBV total DNA were: HBV total DNA forward: 5′-[…]-3′ (SEQ ID NO: 58), reverse 5′-[…]-3′ (SEQ ID NO: 59), and internal probe: 5′-FAM-[…]-TAMRA-3′ (SEQ ID NO: 60). The primers and probe used to amplify HBV cccDNA (Genotype D, subtype ayw) were: forward: 5′-[…]-3′ (SEQ ID NO: 61), reverse 5′-[…]-3′ (SEQ ID NO: 62), and internal probe 5′-FAM-[…]-TAMRA-3′ (SEQ ID NO: 63). The PCR reactions were performed in 20 μl volumes and contained 2 μl DNA. The PCR conditions were: 95° C. for 10 min, followed by 45 cycles of 95° C. for 15 s and 64° C. for 30 s. The DNA levels were determined by the […] method and values were normalized to the control group.
Because the hepatoma cell line HepG2/2.2.15 is a traditional HBV cellular model used to test the efficacy and cytotoxicity of anti-HBV drugs, the synthetic gRNA/Cas9 RNPs were tested for their antiviral efficiency in HepG2/2.2.15 cells. […]

HBV cccDNA = assay: HBV-infected HepG2-NTCP cells directly transfected with gRNA/Cas9 RNPs, HBV cccDNA qPCR; type: cell-based, Hepatitis B virus (HBV); settings: direct transfection for 3 days
Text: To test whether the synthetic gRNA/Cas9 can reduce newly formed HBV cccDNA in HepG2-NTCP cells, the cells with HBV particle-containing supernatants from HepDE19 cells (supernatants harvested 6 days after culture in Tet-free media) were infected. The HepG2-NTCP cells were infected with HBV particles for 6 days and then transfected with gRNA5, gRNA9, gRNA5 plus gRNA9 (in combination), or gRNAc RNPs for 3 days, followed by measuring HBV cccDNA. In another experiment, the infected HepG2-NTCP cells were incubated for 3 days with exosomes packaged with gRNA5, gRNA9, gRNA5 plus gRNA9 (in combination), or gRNAc RNPs, followed by measuring HBV cccDNA.
In another experiment, 1×10^6 HepG2-NTCP cells were infected using supernatants containing HBV particles from HepDE19 cells that were maintained for 6 days. The HBV-infected HepG2-NTCP cells were transfected with gRNA5, gRNA9, gRNA5 plus gRNA9, or gRNAc RNPs as described above. The cells were maintained for 3 days in a complete culture medium and then harvested for HBV cccDNA detection by qPCR.
Total and protein-free HBV DNAs were extracted from whole cell lysate using the Hirt DNA method according to a previously published protocol. […] HBV total DNA and cccDNA were analyzed by real-time PCR using a TaqMan PCR assay. […] The DNA levels were determined by the […] method and values were normalized to the control group.

Sequence | reduction of HBV mRNA expression [1] | reduction in HBsAg expression [1] [%] | antiviral efficacy among the 9 gRNAs tested [1] | HBV cccDNA levels (HBV cccDNA)
GTTATCGCTGGATGTGTCTGNGG (guide GUUAUCGCUGGAUGUGUCUGNGG; complexed with Cas9 protein, chemistry not fully specified) [gRNA5, tested as synthetic gRNA/Cas9 RNP] | ~ 50% | 50 | most specific and potent antiviral efficacy | significantly reduced
GGTCTCCATGCGACGTGCAGNGG [gRNA9] | ~ 50% | 50 | most specific and potent antiviral efficacy | significantly reduced

Reference: patent publication US20260191793A1, “HBV SPECIFIC EXOSOMES AND USES THEREOF” (priority 2022, published 2026)
